Source: ChEMBL document CHEMBL5584354, “Impact of Conjugation of the Reactive Oxygen Species (ROS)-Generating Catalytic Moiety with Membrane-Active Antimicrobial Peptoids: Promoting Multitarget Mechanism and Enhancing Selectivity” (J Med Chem, 2024)
In brackets after ≈: the same amount, converted by molar mass. Activity calls are given as the source filed them. No cut-off for these calls is given here. Non-standard residues stand in square brackets, D forms with d. Residues, ends and D or L forms follow the SMILES beside them. Gly(N(CH2)2(3-indolyl)) = O=C(O)CNCCc1c[nH]c2ccccc12; Nspe = C[C@H](NCC(=O)O)c1ccccc1; Nlys = NCCCCNCC(=O)O

Columns and labels:
Escherichia coli [1] = experiment: Antibacterial activity against Escherichia coli ATCC 25922 assessed as inhibition of bacterial growth incubated for 24 hrs by broth dilution method; format: functional
Staphylococcus aureus = experiment: Antibacterial activity against Staphylococcus aureus ATCC 25923 assessed as inhibition of bacterial growth incubated for 24 hrs by broth dilution method; format: functional
[2] = Hemolytic activity in male Sprague-Dawley rat erythrocytes at 25 uM incubated for 1 hr by absorbance based method relative to control; format: toxicity, cell-based, Erythrocyte; conditions: read-out: Activity
[3] = Hemolytic activity in male Sprague-Dawley rat erythrocytes at 50 uM incubated for 1 hr by absorbance based method relative to control; format: toxicity, cell-based, Erythrocyte; conditions: read-out: Activity
[4] = Hemolytic activity in male Sprague-Dawley rat erythrocytes at 100 uM incubated for 1 hr by absorbance based method relative to control; format: toxicity, cell-based, Erythrocyte; conditions: read-out: Activity
Erythrocyte = experiment: Hemolytic activity in male Sprague-Dawley rat erythrocytes assessed as concentration required for 10% hemolysis incubated for 1 hr by absorbance based method; format: toxicity, cell-based
[5] = Hemolytic activity in male Sprague-Dawley rat erythrocytes assessed as concentration required for 50% hemolysis incubated for 1 hr by absorbance based method; format: toxicity, cell-based, Erythrocyte
[6] = Selectivity index, ratio of HC10 for hemolytic activity in male Sprague-Dawley rat erythrocytes to MIC for antibacterial activity against Escherichia coli ATCC 25922; format: toxicity; conditions: read-out: Selectivity Index
HaCaT = experiment: Cytotoxicity against human HaCaT cells assessed as cell killing incubated for 24 hrs by MTS assay; format: toxicity, cell-based
MRC5 = experiment: Cytotoxicity against human MRC5 cells assessed as cell killing incubated for 24 hrs by MTS assay; format: toxicity, cell-based; conditions: mrc5, 24 h
RAW264.7 [7] = experiment: Cytotoxicity against mouse RAW264.7 cells assessed as cell killing incubated for 24 hrs by MTS assay; format: toxicity, cell-based; conditions: raw264.7, 24 h
HEK293 = experiment: Cytotoxicity against HEK293 cells assessed as cell killing incubated for 24 hrs by MTS assay; format: toxicity, cell-based; conditions: human, hek293, 24 h
Escherichia coli [8] = experiment: Antibacterial activity against carbapenem-resistant Escherichia coli NMS11035 harboring extended-spectrum beta-lactamase assessed as inhibition of bacterial growth incubated for 24 hrs by broth dilution method; format: functional
Escherichia coli [9] = experiment: Antibacterial activity against colistin-resistant Escherichia coli NMS12 harboring extended-spectrum beta-lactamase assessed as inhibition of bacterial growth incubated for 24 hrs by broth dilution method; format: functional
Acinetobacter baumannii = experiment: Antibacterial activity against carbapenem-resistant Acinetobacter baumannii NMS1707 harboring extended-spectrum beta-lactamase assessed as inhibition of bacterial growth incubated for 24 hrs by broth dilution method; format: functional
Klebsiella pneumoniae = experiment: Antibacterial activity against carbapenem-resistant Klebsiella pneumoniae NMS118 harboring extended-spectrum beta-lactamase assessed as inhibition of bacterial growth incubated for 24 hrs by broth dilution method; format: functional
Cell membrane [10] = experiment: Disruption of outer membrane in Escherichia coli ATCC 25922 assessed as increase in absorbance measured every 5 mins for 90 mins by nitrocefin assay; format: cell membranes; conditions: dose 0-25 µM
Cell membrane [11] = experiment: Disruption of inner membrane in Escherichia coli ATCC 25922 assessed as increase in absorbance incubated for 1 hr by ONPG assay; format: cell membranes; conditions: dose 0-25 µM
Lipopolysaccharide (LPS) = experiment: Binding affinity to Escherichia coli O111:B4 LPS at 0 to 25 uM BODIPY-TR-cadaverine substitution assay; format: subcellular; conditions: dose 0-25 µM
DNA = experiment: Binding affinity to pUC19 plasmid DNA (unknown origin) assessed as smearing and retardation of DNA bands at 25 uM incubated for 2 hrs by agarose gel imaging method; format: nucleic-acid assay
Escherichia coli [12] = experiment: Induction of lipid peroxidation in Escherichia coli ATCC 25922 assessed as increase in MDA level at 10 uM incubated for 2 hrs by TBARS assay; format: functional, organism-based
Escherichia coli [13] = experiment: Induction of lipid peroxidation in Escherichia coli ATCC 25922 assessed as increase in green fluorescence at 12.5 uM incubated for 1 hrs by BODIPY 581/591 C11 dye based confocal microscopic analysis; format: functional, organism-based
Escherichia coli [14] = experiment: Induction of lipid peroxidation in Escherichia coli ATCC 25922 at 12.5 uM incubated for 1 hrs by BODIPY 581/591 C11 dye based flow cytometry analysis; format: functional, organism-based
[15] = Cytotoxicity against mouse RAW264.7 cells assessed as cell viability at 10 uM incubated for 24 hrs by […] relative to control; format: toxicity, cell-based; conditions: read-out: Activity
[16] = Cytotoxicity against mouse RAW264.7 cells assessed as cell viability at 20 uM incubated for 24 hrs by […] relative to control; format: toxicity, cell-based; conditions: read-out: Activity
RAW264.7 [17] = experiment: Antiinflammatory activity in LPS-stimulated mouse RAW264.7 cells assessed as reduction in TNFalpha production at 10 uM incubated for 16 hrs by ELISA relative to control; format: functional; set-up: scale not given: the % may be the effect or the level left
RAW264.7 [18] = experiment: Antiinflammatory activity in LPS-stimulated mouse RAW264.7 cells assessed as reduction in IL-6 production at 10 uM incubated for 16 hrs by ELISA relative to control; format: functional; set-up: scale not given: the % may be the effect or the level left
RAW264.7 [19] = experiment: Antiinflammatory activity in LPS-stimulated mouse RAW264.7 cells assessed as reduction in IL-1beta production at 10 uM incubated for 16 hrs by ELISA relative to control; format: functional; set-up: scale not given: the % may be the effect or the level left
RAW264.7 [20] = experiment: Antiinflammatory activity in LPS-stimulated mouse RAW264.7 cells assessed as reduction in nitrite production at 10 uM incubated for 16 hrs by ELISA relative to control; format: functional; set-up: scale not given: the % may be the effect or the level left
[21] = Cytotoxicity against mouse RAW264.7 cells assessed as cell survival at 5 uM incubated for 24 hrs by […] relative to control; format: toxicity, cell-based; conditions: read-out: Survival
[22] = Cytotoxicity against mouse RAW264.7 cells assessed as cell survival at 5 uM incubated for 24 hrs in presence of nickel by […] relative to control; format: toxicity, cell-based; conditions: read-out: Survival
[23] = Cytotoxicity against mouse RAW264.7 cells assessed as cell survival at 5 uM incubated for 24 hrs in presence of copper by […] relative to control; format: toxicity, cell-based; conditions: read-out: Survival
[24] = Cytotoxicity against mouse L929 cells assessed as reduction in cell survival at 6.3 uM incubated for 24 hrs by WST-8 assay relative to control; format: toxicity, cell-based; conditions: read-out: Survival
[25] = Cytotoxicity against HEK293 cells assessed as reduction in cell survival at 6.3 uM incubated for 24 hrs by WST-8 assay relative to control; format: toxicity, cell-based; conditions: human, read-out: Survival

## C[C@@H](c1ccccc1)N(CC(=O)N(CCCCN)CC(=O)N(CCc1c[nH]c2ccccc12)CC(=O)N(CCc1c[nH]c2ccccc12)CC(N)=O)C(=O)CN(CCCCN)C(=O)CN(CCCCN)C(=O)CN(C(=O)CN(C(=O)CN(CCCCN)C(=O)CN(C(=O)CN(C(=O)CNCCCCN)[C@@H](C)c1ccccc1)[C@@H](C)c1ccccc1)[C@@H](C)c1ccccc1)[C@@H](C)c1ccccc1 (H-[Nlys][Nspe][Nspe][Nlys][Nspe][Nspe][Nlys][Nlys][Nspe][Nlys][Gly(N(CH2)2(3-indolyl))][Gly(N(CH2)2(3-indolyl))]-NH2)
Escherichia coli [1]
  MIC: 6.3 µM (≈ 11.7 µg/mL)
Staphylococcus aureus
  MIC: 6.3 µM (≈ 11.7 µg/mL)
[2]
  hemolysis at 1 h, 25 µM: 2.72%
[3]
  hemolysis at 1 h, 50 µM: 7.85%
[4]
  hemolysis at 1 h, 100 µM: 6.7%
Erythrocyte
  HC10: > 100 µM
[5]
  HC50 at 1 h: > 100 µM
[6]
  selectivity ratio: > 15.8
HaCaT
  LC50: 18.8 µM
MRC5
  LC50: 11.8 µM
RAW264.7 [7]
  LC50: 14.9 µM
HEK293
  LC50: 16.3 µM
Escherichia coli [8]
  MIC: 6.3 µM (≈ 11.7 µg/mL)
Escherichia coli [9]
  MIC: 12.5 µM (≈ 23.3 µg/mL)
Acinetobacter baumannii
  MIC: 3.1 µM (≈ 5.78 µg/mL)
Klebsiella pneumoniae
  MIC: 12.5 µM (≈ 23.3 µg/mL)
Cell membrane [10]
  Activity: Dose-Dependent Effect
Cell membrane [11]
  Activity: Dose-Dependent Effect
Lipopolysaccharide (LPS)
  Activity: Active
DNA
  Activity: Active
Escherichia coli [12]
  Activity: Active
Escherichia coli [13]
  Activity: Active
Escherichia coli [14]
  Activity: Active
[15]
  viability at 24 h, 10 µM: 55.9%
[16]
  viability at 24 h, 20 µM: 14.7%
RAW264.7 [17]
  Activity: 54.4%
RAW264.7 [18]
  Activity: 99%
RAW264.7 [19]
  Activity: 72.9%
RAW264.7 [20]
  Activity: 88.7%

## CC[C@H](C)[C@H](NC(=O)CN)C(=O)NCC(=O)N[C@@H](C)C(=O)N[C@H](C(=O)N[C@@H](CC(C)C)C(=O)N[C@@H](CCCCN)C(=O)N[C@H](C(=O)N[C@@H](CC(C)C)C(=O)N[C@H](C(=O)N[C@H](C(=O)NCC(=O)N[C@@H](CC(C)C)C(=O)N1CCC[C@H]1C(=O)N[C@@H](C)C(=O)N[C@@H](CC(C)C)C(=O)N[C@H](C(=O)N[C@@H](CO)C(=O)N[C@@H](Cc1c[nH]c2ccccc12)C(=O)N[C@H](C(=O)N[C@@H](CCCCN)C(=O)N[C@@H](CCCNC(=N)N)C(=O)N[C@@H](CCCCN)C(=O)N[C@@H](CCCNC(=N)N)C(=O)N[C@@H](CCC(N)=O)C(=O)N[C@@H](CCC(N)=O)C(N)=O)[C@@H](C)CC)[C@@H](C)CC)[C@@H](C)O)[C@@H](C)O)C(C)C)C(C)C [MELITTIN]
[21]
  viability at 24 h, 5 µM: < 24.6%
[22]
  viability at 24 h, 5 µM: < 24.6%
[23]
  viability at 24 h, 5 µM: < 24.6%
[24]
  viability at 24 h, 6.3 µM: < 21.5%
[25]
  viability at 24 h, 6.3 µM: < 21.5%
